Reference: US7235377B2, “Global test of the hemostatic system” (The University of Vermont and State Agriculture College, priority 2003, dated 2007)

Experiments:
whole blood = experiment: Tissue factor initiated whole blood assay, thrombin (TAT) at 20 minutes, historical record of treated individuals/blood; parameters: species or system human
[1] = INR of individuals on coumadin therapy; format: in vivo, human
Protocol: Thrombin is illustrated for the group of 13 healthy individuals (♦/⋄, column 1), with the 6-month time period for subject 10 (⋄) illustrated. […] An historical record of whole blood data for individuals on coumadin therapy (●/∘) is seen in column 3. […] Individuals with hemophilia A; or induced hemophilia B; with (Δ) and without (▴) in vitro replacement were reevaluated for their 20 minute time point and are seen in column 4. Two individuals with factor XI deficiency (▪) at low tissue factor are shown in column 5. Thrombin generation from blood treated with anti platelet IIbIIIa therapeutics (*), ReoPro and Integrellin are represented in column 6.

[2] = one individual on coumadin therapy over a 6 month time period

For CC(=O)CC(c1ccccc1)c1c(O)c2ccccc2oc1=O (stereo not drawn) [Coumadin], which “TAT level, Mean” value (whole blood; mean per group, repeated measures on individuals averaged, 20 min) is on record?
Its value is 273.5.

What about the mean thrombin (whole blood; [2]) of the same molecule?
The mean thrombin was 166.6 ± 121.3 nM.

And the “variation of thrombin levels” value (whole blood; [2])?
The value was “approximately 325 nM”.

What about the “thrombin levels (range)” value (whole blood; one individual on coumadin therapy, stable INR, studied 10 times over 6 months, 20 min) of the same molecule?
The value was 9.3 to 334.7 nM.

What about the INR ([1]; group of 7 individuals stably anticoagulated on coumadin, studied once) of the same molecule?
The INR was 2.3±0.5.

What about the INR ([1]; one individual on coumadin therapy studied 10 times over 6 months) of the same molecule?
The INR was 2.1±0.4.
